Data set [1] is described as follows: Pharmacokinetics of oral administration and intravenous injection in Balb/c mice. Type of data set: in vivo. The conditions noted are these: female, mouse, plasma. As to the method: 1. Study on the Pharmacokinetics of Oral Administration and Intravenous Injection of the Compound Represented by Formula (I) in Balb/c Mice The compound represented by formula (I) was mixed with 5% DMSO/55% polyethylene glycol 400/40% aqueous solution, vortexed and sonicated to obtain an approximately clear solution of 1 mg/mL, which was then filtered by a microporous membrane for later use. Female Balb/c mice aged 7 to 10 weeks were selected and the candidate compound solution was administered intravenously at a dose of 1 mg/kg. The compound represented by formula (I) was mixed with 10% solutol (polyethylene glycol-15 hydroxystearate) aqueous solution, vortexed and sonicated to obtain an approximately clear solution of 1 mg/mL, which was then filtered through a microporous membrane for later use. Female Balb/c mice aged 7 to 10 weeks were selected and the candidate compound solution was orally administered at a dose of 10 mg/kg. Whole blood was collected at a certain period of time to prepare plasma, drug concentration was analyzed by LC-MS/MS method, and pharmacokinetic parameters was calculated by Phoenix WinNonlin software (Pharsight, USA). Note: T1/2 means half-life; Vdss means apparent volume of distribution; Cl means clearance rate; AUC0_last means area below the drug-time curve; Tmax means peak time; Cmax means peak concentration; F % means oral bioavailability; iv means intravenous injection; PO means oral administration; mpk means mg/kg.

The test system of the next data set is hepatitis B virus. As to the kind of experiment: In vivo drug efficacy, AAV/HBV mouse model. The conditions noted are these: AAV/HBV mouse model, 15, 50, 150 mg/kg BID PO, 28 days. As for the experimental part:
FIG. 7: The level of Hepatitis B virus DNA in plasma; broken line 1 means blank control, 10% solutol aqueous solution was administered quaque die (QD), per os (PO); broken line 2 means that WX-325 was administrated at a dose of 15 mg/kg bis in die (BID) at an interval of 8 hours, per os (PO); the broken line 3 means that WX-325 was administrated at a dose of 50 mg/kg bis in die (BID) at an interval of 8 hours, per os (PO); broken line 5 means that WX-325 was administrated at a dose of 150 mg/kg bis in die (BID) at an interval of 8 hours, per os (PO); broken line 6 means that tenofovir (TDF) of the positive compound was administrated at a dose of 15 mg/kg bis in die (BID) at an interval of 8 hours, per os (PO); LLOQ means lower limit of detection; Note: WX-325 in FIG. 7 means the compound represented by formula (I) of the present invention. […]
Experimental operation: The day of the first administration was designated as day 0, the day before administration was designated as day −1, the day after administration was designated as day 1, and so on. […] The content of HBV DNA, HBeAg and HBsAg were detected using the serum. […] Both drugs were administered for 28 days, and blood samples were taken on day 3, 7, 10 and 28 after administration, and the level of HBV DNA in plasma was detected by qPCR. […]

Data set [2] can be described thus: Pharmacokinetics of oral administration and intravenous injection in Beagle. Type of data set: in vivo, beagle dogs. As for the experimental part:
3. Study on the Pharmacokinetics of Oral Administration and Intravenous Injection of the Compound Represented by Formula (I) in Beagle The compound represented by formula (I) was mixed with 5% DMSO/55% polyethylene glycol 400/40% aqueous solution, vortexed and sonicated to obtain an approximately clear solution of 1 mg/mL, which was then filtered by a microporous membrane for later use. Male beagle dogs weighed about 10 kg were selected and the candidate compound solution was administered intravenously at a dose of 1 mg/kg. The compound represented by formula (I) was mixed with 10% solutol aqueous solution, vortexed and sonicated to obtain an approximately clear solution of 2 mg/mL, which was then filtered through a microporous membrane for later use. Male beagle dogs weighed about 10 kg were selected and the candidate compound solution was orally administered at a dose of 10 mg/kg. Whole blood was collected at a certain period of time to prepare plasma, drug concentration was analyzed by LC-MS/MS method, and pharmacokinetic parameters was calculated by Phoenix WinNonlin software (Pharsight, USA). Note: T1/2 means half-life; Vdss means apparent volume of distribution; Cl means clearance rate; AUC0_last means area below the drug-time curve; Tmax means peak time; Cmax means peak concentration; F % means oral bioavailability; iv means intravenous injection; PO means oral administration; mpk means mg/kg.

Where [3] appears, read: male, beagle, dog, plasma, 1 mg/kg, Dogs, iv 1 mpk.
[4] abbreviates: male, beagle, dog, plasma, 10 mg/kg, Dogs, po 10 mpk.

As to `Cc1cc2n(c1)S(=O)(=O)c1ccc(C(=O)NCC[C@H]3COCCO3)cc1NC2=O` [compound represented by formula (I)], the clearance in data set [1] (1 mg/kg, iv 1 mpk) amounted to 8.5 mL/min/kg; in data set [2] (setting [3]), 15.6 mL/min/kg. Also, the half-life in data set [1] (1 mg/kg, iv 1 mpk) was 1.2 h; in data set [2] (setting [3]) it was 2.87 h. Moreover, the AUC(0-t) turned out to be 4.67 µM·h in data set [1] (1 mg/kg, iv 1 mpk, read-out: AUC0-last); 32.5 µM·h in data set [1] (10 mg/kg, po 10 mpk, read-out: AUC0-24h); 2.68 µM·h in data set [2] (male, beagle, dog, plasma, 1 mg/kg, Dogs, iv 1 mpk, read-out: AUC0-last); 33.2 µM·h in data set [2] (male, beagle, dog, plasma, 10 mg/kg, Dogs, po 10 mpk, read-out: AUC0-24h). The Vd in data set [1] (1 mg/kg, iv 1 mpk, read-out: Vdss) was 0.45 L/kg; in data set [2] (male, beagle, dog, plasma, 1 mg/kg, Dogs, iv 1 mpk, read-out: Vdss) it was 2.95 L/kg. The Cmax was 19.9 µM in data set [1] (10 mg/kg, po 10 mpk) and 5.85 µM in data set [2] (setting [4]). For the same compound, the Tmax in data set [1] (10 mg/kg, po 10 mpk) came to 0.5 h; in data set [2] (setting [4]), 1.67 h. The bioavailability was 70% in data set [1] (10 mg/kg, po 10 mpk) and 126% in data set [2] (setting [4]). The “in vivo efficacy, HBV DNA in plasma and liver (conclusion in words)” value in the data set on hepatitis B virus is “good in vivo efficacy and a dose-dependent effect”. Besides, in data set [2] (Beagle), the “pharmacokinetics (conclusion in words)” value was “good single or partial index of pharmacokinetics”.

The record behind these values is patent US11952388B2, “Crystal form of tri-cycle compound and application thereof” (FUJIAN AKEYLINK BIOTECHNOLOGY CO., LTD., priority 2018, dated 2024).
